SMILES strings stand for the structures.

The test deals with P. falciparum K1. The test is described as follows: Plasmodium falciparum in vitro assay ([3H] hypoxanthine incorporation). The following applies: 72 h, erythrocytic stages of P. falciparum K1 (strain resistant to chloroquine and pyrimethamine), human red cells, 48 h + 24 h with [3H] hypoxanthine. Format: cell-based. On the procedure: In vitro activity against erythrocytic stages of P. falciparum is determined using a [^3H] hypoxanthine incorporation assay. One strain resistant to chloroquine and pyrimethamine (P. falciparum K1) is used in the assays, and all test compounds are compared for activity with the standard drugs chloroquine (sigma C6628) and artemisinin (sigma-36, 159-3). Compounds are diluted in DMSO to 1 mM and added to parasite cultures incubated in RPMI 1640 medium without hypoxanthine, supplemented with HEPES (5.94 g/L), NaHCO3 (2.1 g/L), neomycin (100 U/mL), Albumax (5 g/L) and washed human red cells at 2.5% haematocrit (0.3% parasitaemia). Seven serial doubling dilutions of each drug are prepared in 96-well microtitre plates and incubated in a humidifying atmosphere at 37° C.; 4% CO2, 3% O2, 93% N2.
After 48 hours, 50 μl of [^3H] hypoxanthine (0.5 μCi) is added to each well of a plate. The plates are incubated for a further 24 hours under the same conditions. The plates are then harvested with a Betaplate cell harvester (Wallac) and washed with distilled water. The dried filters are inserted into a plastic foil with 10 mL of scintillation fluid, and counted in a Betaplate liquid scintillation counter. IC50 values are calculated from sigmoidal inhibition curves using Microsoft Excel.
For orientation: IC50 means the midpoint of a concentration-inhibition curve. Take `CC(C)Cc1ccc(CN(C(=O)/C=C/c2ccc(C(F)(F)F)cc2)[C@@H](Cc2ccccc2)C(=O)N2CCN(Cc3ccccc3)CC2)cc1` [Example 37]: the IC50 was 18 nM. Regarding `CCCCc1ccc(CN(C(=O)/C=C/c2ccc(C(F)(F)F)cc2)[C@@H](Cc2ccccc2)C(=O)N2CCN(Cc3ccccc3)CC2)cc1` [Example 33], the IC50 is 6.9 nM. For `O=C([C@H](Cc1ccccc1)N(Cc1ccc(-c2ccncc2)nc1)C(=O)/C=C/c1ccc(C(F)(F)F)cc1)N1CCN(Cc2ccccc2)CC1` [Example 125, N—[(S)-1-benzyl-2-(4-benzyl-piperazin-1-yl)-2-oxo-ethyl]-N-[2,4′]bipyridinyl-5-ylmethyl-3-(4-trifluoromethyl-phenyl)-acrylamide], the IC50 worked out at 4.8 nM. The same measure for `CCCCOc1ccc(CN(C(=O)/C=C/c2ccc(C(F)(F)F)cc2)[C@@H](Cc2ccccc2)C(=O)N2CCN(Cc3ccccc3)CC2)cc1` [Example 29, N—[(S)-1-benzyl-2-(4-benzyl-piperazin-1-yl)-2-oxo-ethyl]-N-(4-butoxy-benzyl)-3-(4-trifluoromethyl-phenyl)-acrylamide]: 7.5 nM. `C[C@@H]1CC[C@H]2[C@@H](C)C(=O)O[C@@H]3O[C@@]4(C)CC[C@@H]1[C@]32OO4` [Artemisinin, artemisinin, reference compound]: the IC50 is 2 nM. For `COc1ccc(/C=C/C(=O)N(Cc2ccc(OCCCN(C)C)cc2)[C@@H](Cc2ccccc2)C(=O)N2CCN(Cc3ccccc3)CC2)cc1` [Example 43], the IC50 is 8.3 nM. The same measure for `CCCCCc1ccc(CN(C(=O)/C=C/c2ccc(C(F)(F)F)cc2)[C@@H](Cc2ccccc2)C(=O)N2CCN(Cc3ccc(C(F)(F)F)nc3)CC2)cc1` [Example 15]: 11 nM. Regarding `CCCCOc1ccc(CN(C(=O)/C=C/c2ccc(OC)cc2)[C@@H](Cc2ccccc2)C(=O)N2CCN(Cc3ccccc3)CC2)cc1` [Example 38], the IC50 was determined as 11 nM. Take `CCCCCc1ccc(CN(C(=O)/C=C/c2cccc(OC)c2)[C@@H](Cc2ccccc2)C(=O)N2CCN(Cc3ccccc3)CC2)cc1` [Example 5, N—[(S)-1-benzyl-2-(4-benzyl-piperazin-1-yl)-2-oxo-ethyl]-3-(3-methoxy-phenyl)-N-(4-pentyl-benzyl)-acrylamide]: the IC50 came out at 19 nM. As for `CCCCCc1ccc(CN(C(=O)CCc2cc(C(F)(F)F)cc(C(F)(F)F)c2)[C@@H](Cc2ccccc2)C(=O)N2CCN(Cc3ccccc3)CC2)cc1` [Example 6, N—[(S)-1-benzyl-2-(4-benzyl-piperazin-1-yl)-2-oxo-ethyl]-3-(3,5-bis-trifluoromethyl-phenyl)-N-(4-pentyl-benzyl)-propionamide], the IC50 stood at 588 nM. Consider `CCCCCc1ccc(CN(C(=O)/C=C/c2ccc(OC)cc2)[C@@H](Cc2ccccc2)C(=O)N2CCN(Cc3ccccc3)CC2)cc1` [Example 4, N—[(S)-1-benzyl-2-(4-benzyl-piperazin-1-yl)-2-oxo-ethyl]-3-(4-methoxy-phenyl)-N-(4-pentyl-benzyl)-acrylamide], for which the IC50 is 7 nM. As to `CCCCCc1ccc(CN(C(=O)/C=C/c2ccc(C(F)(F)F)cc2)[C@@H](Cc2ccccc2)C(=O)N2CCN(Cc3ccccc3)CC2)cc1` [Example 1, N—[(S)-1-benzyl-2-(4-benzyl-piperazin-1-yl)-2-oxo-ethyl]-N-(4-pentyl-benzyl)-3-(4-trifluoromethyl-phenyl)-acrylamide], the IC50 is 3.8 nM. For `CCCCCc1ccc(CN(C(=O)/C=C/c2cccc(C(F)(F)F)c2)[C@@H](Cc2ccccc2)C(=O)N2CCN(Cc3ccccc3)CC2)cc1` [Example 2, N—[(S)-1-benzyl-2-(4-benzyl-piperazin-1-yl)-2-oxo-ethyl]-N-(4-pentyl-benzyl)-3-(3-trifluoromethyl-phenyl)-acrylamide], the half-inhibitory concentration (IC50) came out at 70 nM. For the compound `CCCCCc1ccc(CN(C(=O)/C=C/c2ccccc2C(F)(F)F)[C@@H](Cc2ccccc2)C(=O)N2CCN(Cc3ccccc3)CC2)cc1` [Example 3, N—[(S)-1-benzyl-2-(4-benzyl-piperazin-1-yl)-2-oxo-ethyl]-N-(4-pentyl-benzyl)-3-(2-trifluoromethyl-phenyl)-acrylamide], the IC50 was 375 nM. As for `O=C([C@H](Cc1ccccc1)N(Cc1ccc(N2CCCC2=O)nc1)C(=O)/C=C/c1ccc(C(F)(F)F)cc1)N1CCN(Cc2ccccc2)CC1` [Example 129, N—[(S)-1-benzyl-2-(4-benzyl-piperazin-1-yl)-2-oxo-ethyl]-N-[6-(2-oxo-pyrrolidin-1-yl)-pyridin-3-ylmethyl]-3-(4-trifluoromethyl-phenyl)-acrylamide], the IC50 is 9.5 nM.

(Values after patent publication US8067419B2, “Piperazines as antimalarial agents” (Actelion Pharmaceuticals Ltd., priority 2005, dated 2011).)
